Results taken from US20100298141A1, “SUBSTITUTED PYRIDINE N-OXIDE HERBICIDES” (E. I. DU PONT DE NEMOURS AND COMPANY, priority 2007, published 2010).

How the values were obtained:
southern sandbur = experiment: Test F preemergence test; format: in vivo, Cenchrus echinatus; conditions: scale 0 to 100
In short: (§1)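 Preemergence application to planted seeds, or postemergence to sugarcane plants; compound in non-phytotoxic solvent mix plus surfactant. Greenhouse, 14-21 days. Visual rating vs. controls.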

johnsongrass = experiment: Test F preemergence test; format: in vivo, Sorghum halepense; conditions: scale 0 to 100
In short: as §1

purple nutsedge = experiment: Test F preemergence test; format: in vivo, Cyperus rotundus; conditions: scale 0 to 100
In short: as §1

field bindweed = experiment: Test F preemergence test; format: in vivo, Convolvulus arvensis; conditions: scale 0 to 100
In short: as §1

naked crabgrass = experiment: Test F preemergence test; format: in vivo, Digitaria nuda; conditions: scale 0 to 100
In short: as §1

pitted morningglory = experiment: Test F preemergence test; format: in vivo, Ipomoea lacunosa; conditions: scale 0 to 100
In short: as §1

common ragweed = experiment: Test F preemergence test; format: in vivo, Ambrosia elation; conditions: scale 0 to 100
In short: as §1

common groundsel = experiment: Test F preemergence test; format: in vivo, Senecio vulgaris; conditions: scale 0 to 100
In short: as §1

Russian thistle = experiment: Test C pre-/postemergence test; format: in vivo, Salsola kali
In short: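 Compounds in a non-phytotoxic solvent with surfactant applied preemergence to seeded pots and, at the same time, postemergence to plants 2–18 cm tall (1- to 4-leaf stage). Paddy tests: pots flooded to 3 cm, compound applied into the water, depth held throughout.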

itchgrass = experiment: Test F preemergence test; format: in vivo, Rottboellia cochinchinensis; conditions: scale 0 to 100
In short: as §1

large crabgrass = experiment: Test F preemergence test; format: in vivo, Digitaria sanguinalis; conditions: scale 0 to 100
In short: as §1

green foxtail = experiment: Test F preemergence test; format: in vivo, Setaria viridis; conditions: scale 0 to 100
In short: as §1

Italian ryegrass = experiment: Test F preemergence test; format: in vivo, Lolium multiflorum; conditions: scale 0 to 100
In short: as §1

annual bluegrass = experiment: Test F preemergence test; format: in vivo, Poa annua; conditions: scale 0 to 100
In short: as §1

common purslane = experiment: Test F preemergence test; format: in vivo, Portulaca oleracea; conditions: scale 0 to 100
In short: as §1

goosegrass = experiment: Test F preemergence test; format: in vivo, Eleusine indica; conditions: scale 0 to 100
In short: as §1

barnyardgrass = experiment: Test F preemergence test; format: in vivo, Echinochloa crus-galli
In short: as §1

[1] = 62 g ai/ha, Preemergence, scale 0 to 100
[2] = Preemergence, 31 g ai/ha, scale 0 to 100

Cn1nc(C(F)(F)F)c(C[S+]([O-])c2cccc[n+]2[O-])c1OC(F)F (stereo not drawn) [Compound 3]
30: Plant response rating, Ryegrass, Italian (Italian ryegrass; Preemergence, 16 g ai/ha)
65: Plant response rating, Sandbur (southern sandbur; 16 g ai/ha, preemergence) | Plant response rating, Johnsongrass (johnsongrass; Preemergence, 16 g ai/ha) | Plant response rating, Ryegrass, Italian (Italian ryegrass; Preemergence, 31 g ai/ha)
90: Plant response rating, Sandbur (southern sandbur; Preemergence, 31 g ai/ha) | Plant response rating, Johnsongrass (johnsongrass; Preemergence, 31 g ai/ha) | Plant response rating, Crabgrass, Naked (naked crabgrass; Preemergence, 31 g ai/ha) | Ragweed plant response rating (common ragweed; 62 g ai/ha, Preemergence) | Itchgrass plant response rating (itchgrass; 62 g ai/ha, Preemergence) | Plant response rating, Barnyardgrass (barnyardgrass; [2])
0: Plant response rating, Johnsongrass (johnsongrass; 8 g ai/ha, preemergence) | Plant response rating, Purple Nutsedge (purple nutsedge; 8 g ai/ha, preemergence) | Plant response rating, Field Bindweed (field bindweed; 8 g ai/ha, preemergence) | Plant response rating, Field Bindweed (field bindweed; Preemergence, 16 g ai/ha) | Plant response rating, Morningglory (pitted morningglory; 8 g ai/ha, preemergence) | Plant response rating, Morningglory (pitted morningglory; Preemergence, 16 g ai/ha) | Plant response rating, Ragweed (common ragweed; 8 g ai/ha, preemergence) | Plant response rating, Groundsel (common groundsel; 8 g ai/ha, preemergence) | Plant response rating, Groundsel (common groundsel; Preemergence, 16 g ai/ha) | Russian Thistle plant response rating (Russian thistle; 31 g ai/ha, Preemergence, scale 0 to 100) | Plant response rating, Itchgrass (itchgrass; 8 g ai/ha, preemergence) | Plant response rating, Crabgrass, Large (large crabgrass; 8 g ai/ha, preemergence) | Plant response rating, Foxtail, Green (green foxtail; 8 g ai/ha, preemergence) | Plant response rating, Ryegrass, Italian (Italian ryegrass; 8 g ai/ha, preemergence) | Plant response rating, Bluegrass (annual bluegrass; 8 g ai/ha, preemergence) | Plant response rating, Bluegrass (annual bluegrass; Preemergence, 16 g ai/ha) | Plant response rating, Purslane (common purslane; 8 g ai/ha, preemergence) | Plant response rating, Purslane (common purslane; Preemergence, 16 g ai/ha) | Plant response rating, Goosegrass (goosegrass; 8 g ai/ha, preemergence)
80: Purple Nutsedge plant response rating (purple nutsedge; 62 g ai/ha, Preemergence) | Plant response rating, Crabgrass, Naked (naked crabgrass; Preemergence, 16 g ai/ha) | Plant response rating, Ragweed (common ragweed; Preemergence, 31 g ai/ha) | Ryegrass, Italian plant response rating (Italian ryegrass; 62 g ai/ha, Preemergence) | Plant response rating, Barnyardgrass (barnyardgrass; Preemergence, 16 g ai/ha, scale 0 to 100)
40: Plant response rating, Foxtail, Green (green foxtail; Preemergence, 16 g ai/ha) | Plant response rating, Goosegrass (goosegrass; Preemergence, 16 g ai/ha) | Plant response rating, Barnyardgrass (barnyardgrass; 8 g ai/ha, preemergence, scale 0 to 100)
70: Plant response rating, Itchgrass (itchgrass; Preemergence, 31 g ai/ha) | Plant response rating, Crabgrass, Large (large crabgrass; Preemergence, 31 g ai/ha)
98: Goosegrass plant response rating (goosegrass; 62 g ai/ha, Preemergence)
100: Crabgrass, Naked plant response rating (naked crabgrass; 62 g ai/ha, Preemergence) | Groundsel plant response rating (common groundsel; 62 g ai/ha, Preemergence) | Crabgrass, Large plant response rating (large crabgrass; 62 g ai/ha, Preemergence) | Purslane plant response rating (common purslane; 62 g ai/ha, Preemergence) | Barnyardgrass plant response rating (barnyardgrass; [1])
60: Plant response rating, Purple Nutsedge (purple nutsedge; Preemergence, 16 g ai/ha) | Plant response rating, Ragweed (common ragweed; Preemergence, 16 g ai/ha) | Plant response rating, Groundsel (common groundsel; Preemergence, 31 g ai/ha) | Plant response rating, Purslane (common purslane; Preemergence, 31 g ai/ha)
50: Bluegrass plant response rating (annual bluegrass; 62 g ai/ha, Preemergence) | Plant response rating, Bluegrass (annual bluegrass; Preemergence, 31 g ai/ha)
75: Plant response rating, Purple Nutsedge (purple nutsedge; Preemergence, 31 g ai/ha) | Plant response rating, Foxtail, Green (green foxtail; Preemergence, 31 g ai/ha)
20: Plant response rating, Sandbur (southern sandbur; 8 g ai/ha, preemergence) | Plant response rating, Crabgrass, Naked (naked crabgrass; 8 g ai/ha, preemergence) | Plant response rating, Crabgrass, Large (large crabgrass; Preemergence, 16 g ai/ha)
25: Field Bindweed plant response rating (field bindweed; 62 g ai/ha, Preemergence) | Plant response rating, Field Bindweed (field bindweed; Preemergence, 31 g ai/ha)
95: Sandbur plant response rating (southern sandbur; 62 g ai/ha, Preemergence) | Johnsongrass plant response rating (johnsongrass; 62 g ai/ha, Preemergence) | Foxtail, Green plant response rating (green foxtail; 62 g ai/ha, Preemergence) | Plant response rating, Goosegrass (goosegrass; Preemergence, 31 g ai/ha)
35: Morningglory plant response rating (pitted morningglory; 62 g ai/ha, Preemergence) | Plant response rating, Itchgrass (itchgrass; Preemergence, 16 g ai/ha)

Cn1nc(C(F)(F)F)c(C[S+]([O-])c2ccc(Cl)c[n+]2[O-])c1OCC(F)(F)F (racemic) [Compound 62]
40: Plant response rating, Purslane (common purslane; Preemergence, 31 g ai/ha)
50: Plant response rating, Itchgrass (itchgrass; 16 g ai/ha, preemergence) | Plant response rating, Ryegrass, Italian (Italian ryegrass; 16 g ai/ha, preemergence) | Plant response rating, Goosegrass (goosegrass; 16 g ai/ha, preemergence)
20: Plant response rating, Johnsongrass (johnsongrass; 16 g ai/ha, preemergence) | Plant response rating, Foxtail, Green (green foxtail; 16 g ai/ha, preemergence) | Plant response rating, Bluegrass (annual bluegrass; 16 g ai/ha, preemergence)
98: Sandbur plant response rating (southern sandbur; 125 g ai/ha, preemergence) | Plant response rating, Sandbur (southern sandbur; Preemergence, 62 g ai/ha) | Itchgrass plant response rating (itchgrass; 125 g ai/ha, preemergence) | Crabgrass, Large plant response rating (large crabgrass; 125 g ai/ha, preemergence) | Plant response rating, Ryegrass, Italian (Italian ryegrass; Preemergence, 31 g ai/ha) | Goosegrass plant response rating (goosegrass; 62 g ai/ha, Preemergence)
30: Plant response rating, Barnyardgrass (barnyardgrass; 16 g ai/ha, preemergence, scale 0 to 100 (0 no effect, 100 complete control))
80: Plant response rating, Johnsongrass (johnsongrass; Preemergence, 31 g ai/ha) | Ragweed plant response rating (common ragweed; 125 g ai/ha, preemergence) | Groundsel plant response rating (common groundsel; 62 g ai/ha, Preemergence) | Foxtail, Green plant response rating (green foxtail; 62 g ai/ha, Preemergence) | Bluegrass plant response rating (annual bluegrass; 62 g ai/ha, Preemergence)
90: Plant response rating, Crabgrass, Naked (naked crabgrass; 16 g ai/ha, preemergence) | Plant response rating, Crabgrass, Naked (naked crabgrass; Preemergence, 31 g ai/ha) | Groundsel plant response rating (common groundsel; 125 g ai/ha, preemergence) | Itchgrass plant response rating (itchgrass; 62 g ai/ha, Preemergence) | Crabgrass, Large plant response rating (large crabgrass; 62 g ai/ha, Preemergence)
0: Plant response rating, Purple Nutsedge (purple nutsedge; 16 g ai/ha, preemergence) | Plant response rating, Field Bindweed (field bindweed; 16 g ai/ha, preemergence) | Plant response rating, Morningglory (pitted morningglory; 16 g ai/ha, preemergence) | Plant response rating, Groundsel (common groundsel; 16 g ai/ha, preemergence)
65: Purple Nutsedge plant response rating (purple nutsedge; 62 g ai/ha, Preemergence) | Plant response rating, Foxtail, Green (green foxtail; Preemergence, 31 g ai/ha) | Plant response rating, Goosegrass (goosegrass; Preemergence, 31 g ai/ha)
75: Plant response rating, Sandbur (southern sandbur; Preemergence, 31 g ai/ha) | Purple Nutsedge plant response rating (purple nutsedge; 125 g ai/ha, preemergence) | Field Bindweed plant response rating (field bindweed; 62 g ai/ha, Preemergence) | Field Bindweed plant response rating (field bindweed; 125 g ai/ha, preemergence) | Plant response rating, Field Bindweed (field bindweed; Preemergence, 31 g ai/ha) | Morningglory plant response rating (pitted morningglory; 62 g ai/ha, Preemergence) | Plant response rating, Morningglory (pitted morningglory; Preemergence, 31 g ai/ha) | Plant response rating, Itchgrass (itchgrass; Preemergence, 31 g ai/ha) | Purslane plant response rating (common purslane; 125 g ai/ha, preemergence) | Plant response rating, Barnyardgrass (barnyardgrass; [2])
35: Plant response rating, Purple Nutsedge (purple nutsedge; Preemergence, 31 g ai/ha)
100: Johnsongrass plant response rating (johnsongrass; 62 g ai/ha, Preemergence) | Johnsongrass plant response rating (johnsongrass; 125 g ai/ha, preemergence) | Crabgrass, Naked plant response rating (naked crabgrass; 62 g ai/ha, Preemergence) | Crabgrass, Naked plant response rating (naked crabgrass; 125 g ai/ha, preemergence) | Morningglory plant response rating (pitted morningglory; 125 g ai/ha, preemergence) | Russian Thistle plant response rating (Russian thistle; [1]) | Russian Thistle plant response rating (Russian thistle; 125 g ai/ha, preemergence, scale 0 (no effect) to 100 (complete control)) | Plant response rating, Russian Thistle (Russian thistle; Preemergence, 31 g ai/ha, scale 0 to 100 (0 no effect, 100 complete control)) | Russian Thistle plant response rating (Russian thistle; preemergence, 250 g ai/ha, scale 0 (no effect) to 100 (complete control)) | Foxtail, Green plant response rating (green foxtail; 125 g ai/ha, preemergence) | Ryegrass, Italian plant response rating (Italian ryegrass; 125 g ai/ha, preemergence) | Plant response rating, Ryegrass, Italian (Italian ryegrass; Preemergence, 62 g ai/ha) | Bluegrass plant response rating (annual bluegrass; 125 g ai/ha, preemergence) | Goosegrass plant response rating (goosegrass; 125 g ai/ha, preemergence) | Barnyardgrass plant response rating (barnyardgrass; [1]) | Barnyardgrass plant response rating (barnyardgrass; 125 g ai/ha, preemergence, scale 0 to 100)
25: Plant response rating, Sandbur (southern sandbur; 16 g ai/ha, preemergence)
60: Plant response rating, Ragweed (common ragweed; 16 g ai/ha, preemergence) | Plant response rating, Ragweed (common ragweed; Preemergence, 31 g ai/ha) | Plant response rating, Crabgrass, Large (large crabgrass; Preemergence, 31 g ai/ha) | Purslane plant response rating (common purslane; 62 g ai/ha, Preemergence)
15: Plant response rating, Crabgrass, Large (large crabgrass; 16 g ai/ha, preemergence) | Plant response rating, Purslane (common purslane; 16 g ai/ha, preemergence)
70: Plant response rating, Ragweed (common ragweed; Preemergence, 62 g ai/ha) | Plant response rating, Groundsel (common groundsel; Preemergence, 31 g ai/ha) | Plant response rating, Bluegrass (annual bluegrass; Preemergence, 31 g ai/ha)
